Values quoted from earlier work, collected in publication PMC3048208 (British Journal of Cancer, 2011).
Structures can show the parent of a compound that is named as a salt.

Assays:
[1] = system: other zinc-binding enzymes; parameters: method as in Novotny-Diermayr et al, 2010; conditions: in vitro; ref Novotny-Diermayr et al, 2010; cited from earlier work
[2] = parameters: method as in Novotny-Diermayr et al, 2010; conditions: animal pre-clinical models; ref Novotny-Diermayr et al, 2010; cited from earlier work
dog = conditions: 3 days per week in a 28-day cycle; cited from earlier work

In the case of `CCCCc1nc2cc(/C=C/C(=O)NO)ccc2n1CCN(CC)CC` [SB939, 3-[2-butyl-1-(2-diethylaminoethyl)-1H-benzoimidazol-5-yl]-N-hydroxyacrylami-hydrochloride], the “Effects on other zinc-binding enzymes” value [1] is listed as “no effects”, the “Increase in bioavailability compared with vorinostat” value [2] is listed as over 4 fold and the “Longer half-life compared with vorinostat” value [2] is listed as 3.3 fold. The “No observed adverse effect level” value (dog) was 60 mg m^−2 per day.
